From patent publication US11685716B2, “Plant growth inhibiting agent, and plant growth inhibiting method using same” (NATIONAL UNIVERSITY CORPORATION KUMAMOTO UNIVERSITY, priority 2017, dated 2023)

Experiments:
thale cress = assay: Plant growth inhibition index, thale cress on agar medium in test tube (Evaluation 8, 9); assay type: in vivo, thale cress (Col-0, wild-type strain); parameters: key: 0: No effect; 1: Growth of the root part was inhibited 50% or less compared with non-treated area.; 2: Growth of the root part was inhibited 50% or more compared with non-treated area.; 3: Growth of the root part was substantially inhibited.; 4: Germination was inhibited; details: for index on the plant growth inhibition effect: 200 μM, 8 days (Evaluation 8); for Index: Concentration 200 μM, 8 days (Evaluation 9, Table 2)
Protocol: 0.44% (w/v) Mixed salts for Murashige and Skoog medium (SIGMA), 1% (w/v) sucrose, and 0.05% (w/v) MES were mixed, and pH of the solution was adjusted to pH 5.7 with potassium hydroxide. 1.5% (w/v) Agar was added to the mixture, which was sterilized at 120° C. in an autoclave for 20 minutes. The test compound and dimethylformamide containing 1.5% of polyoxyethylenesorbitan monolaurate for a control experiment, were added at this stage and blended. In addition, the compound was used by adjusting an addition concentration to 200 μM. Four ml each of the medium was dispensed in sterile glass test tube ([…] RIKA GLASS CO., LTD.) to prepare agar medium.
As a plant material, Col-0, which is a wild-type strain of thale cress, was used.
Seeds, after their surfaces were sterilized, were planted on the agar medium, and the growth of the plant was carried out in a plant incubator (CFH-405) under the conditions of an illuminance of 3 at 23° C. with constant light. The plants on the agar medium were grown for 8 days in the chamber.
The plant growth inhibition effect of the compounds was evaluated by conversion to indexes according to the following investigation criteria.

Ragweed = assay: Seed treatment, plant growth inhibition index (Evaluation 11); assay type: in vivo; parameters: key: 0: No effect; 1: Growth of the root part was inhibited 50% or less compared with non-treated area.; 2: Growth of the root part was inhibited 50% or more compared with non-treated area.; 3: Growth of the root part was substantially inhibited.; 4: Germination was inhibited
Protocol: (§1) The compound of the present invention (2 mg) was dissolved in a 1.5% Tween dimethylformamide solution (100 μL) to use as a test chemical solution.
(§2) Eight mL of sterilized water was poured to a cherry cup (100Φ×45 mm) lined with a filter paper, subsequently 81.1 μL of the sterilized water was removed, and 81.1 μL of the test chemical solution was added such that a final concentration of the compound was 800 μM.
(§3) Further, cherry cups were similarly prepared such that a final concentration of the compound was 200 μM.
(§4) Seeds (Japanese millet: 3 grains, velvet leaf: 6 grains, Ragweed: 8 grains, morning glory: 2 grains) were planted on the filter paper in the cherry cups, followed by growing the plants in a thermostatic chamber at 25° C. under a light-dark cycle in which a light period is 12 hours and a dark period is 12 hours for 6 days.
(§5) In addition, with regards to the compound (9a) and the compound (9b), the plants were tested for 7 days.
(§6) Plant growth inhibition effects of the compounds were evaluated by conversion to indexes according to the following investigation criteria.

Japanese millet = assay: as above; assay type: in vivo; parameters: key: 0: No effect; 1: Growth of the root part was inhibited 50% or less compared with non-treated area.; 2: Growth of the root part was inhibited 50% or more compared with non-treated area.; 3: Growth of the root part was substantially inhibited.; 4: Germination was inhibited
Protocol: as §1, §2, §3, §4, §5, §6

morning glory = assay: as above; assay type: in vivo; parameters: key: 0: No effect; 1: Growth of the root part was inhibited 50% or less compared with non-treated area.; 2: Growth of the root part was inhibited 50% or more compared with non-treated area.; 3: Growth of the root part was substantially inhibited.; 4: Germination was inhibited
Protocol: as §1, §2, §3, §4, §5, §6

velvet leaf [1] = assay: as above; assay type: in vivo; parameters: key: 0: No effect; 1: Growth of the root part was inhibited 50% or less compared with non-treated area.; 2: Growth of the root part was inhibited 50% or more compared with non-treated area.; 3: Growth of the root part was substantially inhibited.; 4: Germination was inhibited
Protocol: as §1, §2, §3, §4, §5, §6

Japanese bristlegrass = assay: Spray treatment to stems and leaves, killing weed index (Evaluation 10); assay type: in vivo; details: 2000 g active ingredient per hectare, two weeks later
Protocol: (§7) POA allyl phenyl ether (4.1 parts by weight), POE-POP glycol (1 part by weight), POE sorbitan laurate (0.8 parts by weight), glycerin (2.6 parts by weight), dimethylformamide (65.9 parts by weight), N-methylpyrrolidone (5.1 parts by weight), cyclohexanone (15.4 parts by weight), and aromatic hydrocarbon (5.1 parts by weight) were mixed and dissolved to prepare an emulsion. The compounds of the present invention (4 mg) were dissolved in this emulsion (100 μL) to prepare a test emulsion. In addition, POA means “polyoxyalkylene”, POE means “polyoxyethylene”, and POP means “polyoxypropylene.”
(§8) Four hundred μL of the above test emulsion was diluted with 7600 μL of water to use as a test spray liquid.
(§9) Further, 400 μL of the above test emulsion was diluted with 1600 μL of a 1% Tween20 aqueous solution to use as a spray liquid for a small amount spray test.
(§10) For a comparative spray liquid, 53 μL of a 30% pendimethalin emulsion (Gogosan emulsion: manufactured by BASF Japan) as a control pesticides was diluted with 7947 μL of water. Further, for a comparative spray liquid for a small amount spray test, 53 μL of the 30% pendimethalin emulsion was diluted with 1947 μL of water.
(§11) A 150 cm^2 pot was filled with a soil, seeds of each purple amaranth, Japanese bristlegrass, southern crabgrass, and velvet leaf were sown on the surface layer, lightly covered with a soil and grown in a greenhouse. When each plant grew to a plant height of 2 to 9 cm, the test spray liquid was sprayed to the stem and leaf parts with a small spraying machine such that an active ingredient amount was 2000 g per hectare and a sprayed liquid amount was 1000 L per hectare.
(§12) Similarly, the test spray liquid for a small amount spray test was sprayed to the stem and leaf parts with a small spraying machine such that an active ingredient amount was 2000 g per hectare and a sprayed liquid amount was 250 L per hectare.
(§13) Two weeks later, the above-ground grass weight in non-treated areas and the above-ground grass weight in treated areas, by the weed, were measured to calculate a killing weed rate by the following calculating formula.
(§14) (a) Calculating Formula of Weeding Rate Killing weed rate (%)=(above-ground grass weight in non-treated area−above-ground grass weight in treated area)/(above-ground grass weight in non-treated area)×100 (b) Killing Weed Indexes
(§15) The obtained killing weed rates were evaluated, such that a killing weed index was “10” when a killing weed rate is 100%, as “9” when a killing weed rate is 99% to 90%, “8” when a killing weed rate is 89% to 80%, “7” when a killing weed rate is 79% to 70%, “6” when a killing weed rate is 69% to 60%, “5” when a killing weed rate is 59% to 50%, “4” when a killing weed rate is 49% to 40%, “3” when a killing weed rate is 39% to 30%, “2” when a killing weed rate is 29% to 20%, “1” when a killing weed rate is 19% to 10%, and “0” when a killing weed rate is 9% to 0%.

purple amaranth = assay: as above; assay type: in vivo; details: 2000 g active ingredient per hectare, two weeks later
Protocol: as §7, §8, §9, §10, §11, §12, §13, §14, §15

velvet leaf [2] = assay: as above; assay type: in vivo; details: 2000 g active ingredient per hectare, two weeks later
Protocol: as §7, §8, §9, §10, §11, §12, §13, §14, §15

southern crabgrass = assay: as above; assay type: in vivo; details: 2000 g active ingredient per hectare, two weeks later
Protocol: as §7, §8, §9, §10, §11, §12, §13, §14, §15

[3] = 200 μM, 6 days (9a, 9b: 7 days)
[4] = sprayed liquid amount 1000 L/ha

SMILES	index on the plant growth inhibition effect (thale cress)	plant growth inhibition index, Ragweed (Ragweed; [3])	plant growth inhibition index, Ragweed (Ragweed; 800 μM, 6 days)	plant growth inhibition index, Japanese millet (Japanese millet; [3])	plant growth inhibition index, Japanese millet (Japanese millet; 800 μM, 6 days)	plant growth inhibition index, Morning glory (morning glory; [3])	plant growth inhibition index, Morning glory (morning glory; 800 μM, 6 days)	plant growth inhibition index, Velvet leaf (velvet leaf [1]; [3])	plant growth inhibition index, Velvet leaf (velvet leaf [1]; 800 μM, 6 days)	killing weed index, Japanese bristlegrass (Japanese bristlegrass; sprayed liquid amount 250 L/ha)	killing weed index, Japanese bristlegrass (Japanese bristlegrass; [4])	killing weed index, Purple amaranth (purple amaranth; sprayed liquid amount 250 L/ha)	killing weed index, Purple amaranth (purple amaranth; [4])	killing weed index, Velvet leaf (velvet leaf [2]; sprayed liquid amount 250 L/ha)	killing weed index, Velvet leaf (velvet leaf [2]; [4])	killing weed index, Southern crabgrass (southern crabgrass; sprayed liquid amount 250 L/ha)	killing weed index, Southern crabgrass (southern crabgrass; [4])	Index (thale cress)
CCCCCCCCCOn1cccc1C(=O)O [Compound 8b]	4	3 (Growth of the stem and leave parts was inhibited 30% or more compared with non-treated area, or growth of the only root part was inhibited 60% or more compared with non-treated area.)	9 (Growth of the stem and leave parts was inhibited 90% or more compared with non-treated area.)	3 (Growth of the stem and leave parts was inhibited 30% or more compared with non-treated area, or growth of the only root part was inhibited 60% or more compared with non-treated area.)	10	3 (Growth of the stem and leave parts was inhibited 30% or more compared with non-treated area, or growth of the only root part was inhibited 60% or more compared with non-treated area.)	8 (Growth of the stem and leave parts was inhibited 80% or more compared with non-treated area.)	0	8 (Growth of the stem and leave parts was inhibited 80% or more compared with non-treated area.)	5 (“5” when a killing weed rate is 59% to 50%)	5 (“5” when a killing weed rate is 59% to 50%)	8 (“8” when a killing weed rate is 89% to 80%)	3 (“3” when a killing weed rate is 39% to 30%)	6 (“6” when a killing weed rate is 69% to 60%)	0 (“0” when a killing weed rate is 9% to 0%)	2 (“2” when a killing weed rate is 29% to 20%)	4 (“4” when a killing weed rate is 49% to 40%)	–
O=C(O)c1cccn1OCCCC(F)(F)F [Compound 8i]	2 (Growth of the root part was inhibited 50% or more compared with non-treated area.)	–	–	–	–	–	–	–	–	1 (“1” when a killing weed rate is 19% to 10%)	3 (“3” when a killing weed rate is 39% to 30%)	0 (“0” when a killing weed rate is 9% to 0%)	0 (“0” when a killing weed rate is 9% to 0%)	0 (“0” when a killing weed rate is 9% to 0%)	0 (“0” when a killing weed rate is 9% to 0%)	2 (“2” when a killing weed rate is 29% to 20%)	2 (“2” when a killing weed rate is 29% to 20%)	–
CCCCCOn1cc(-c2ccccc2)cc1C(=O)O [Compound 9a, 1-Pentyloxy-4-phenyl-1H-pyrrole-2-carboxylic acid]	–	0	–	3 (Growth of the stem and leave parts was inhibited 30% or more compared with non-treated area, or growth of the only root part was inhibited 60% or more compared with non-treated area.)	–	0	–	0	–	3 (“3” when a killing weed rate is 39% to 30%)	–	8 (“8” when a killing weed rate is 89% to 80%)	–	3 (“3” when a killing weed rate is 39% to 30%)	–	2 (“2” when a killing weed rate is 29% to 20%)	–	4
CCCCCCCCCOn1cc(C)cc1C(=O)O [Compound 9c]	–	–	–	–	–	–	–	–	–	2 (“2” when a killing weed rate is 29% to 20%)	3 (“3” when a killing weed rate is 39% to 30%)	1 (“1” when a killing weed rate is 19% to 10%)	0 (“0” when a killing weed rate is 9% to 0%)	5 (“5” when a killing weed rate is 59% to 50%)	0 (“0” when a killing weed rate is 9% to 0%)	3 (“3” when a killing weed rate is 39% to 30%)	5 (“5” when a killing weed rate is 59% to 50%)	3
CCCCCOn1cc(-c2ccsc2)cc1C(=O)O [Compound 9j]	–	8 (Growth of the stem and leave parts was inhibited 80% or more compared with non-treated area.)	9 (Growth of the stem and leave parts was inhibited 90% or more compared with non-treated area.)	4 (Growth of the stem and leave parts was inhibited 40% or more compared with non-treated area, or growth of the only root part was inhibited 80% or more compared with non-treated area.)	3 (Growth of the stem and leave parts was inhibited 30% or more compared with non-treated area, or growth of the only root part was inhibited 60% or more compared with non-treated area.)	3 (Growth of the stem and leave parts was inhibited 30% or more compared with non-treated area, or growth of the only root part was inhibited 60% or more compared with non-treated area.)	5 (Growth of the stem and leave parts was inhibited 50% or more compared with non-treated area, or growth of the only root part was inhibited 100% or more compared with non-treated area.)	0	5 (Growth of the stem and leave parts was inhibited 50% or more compared with non-treated area, or growth of the only root part was inhibited 100% or more compared with non-treated area.)	–	–	–	–	–	–	–	–	2 (Growth of the root part was inhibited 50% or more compared with non-treated area.)
